Assay results: patent publication US9131691B2, “Use of amide compounds for preventing marine biofouling” (The Hong Kong University of Science and Technology, priority 2011, dated 2015)
Values after ≈ are worked out from the molar mass of the structure shown. Read-outs that look alike come from different tables or passages of the source.

Columns and labels:
Format in all cases: in vivo
[1] = system: B. neritina larvae; test: inhibition of larvae settlement of B. neritina; conditions: for LC50/EC50: B. neritina, ratio >10 regarded as non-toxic; for EC50: Bugula neritina, read-out: EC50 (larval settlement)
Protocol: (§1) Adult B. neritina colonies were placed in a 12 L tank filled with 8 L filtered seawater under a bright artificial light for 1 h to induce the release of their photo-tactic larvae that were able to shortly attach and metamorphose. The actively swimming larvae were collected and added to the test solutions contain different concentrations of samples in 24-well plates at about fifteen (15±3) larvae per well. They were then incubated in the dark at room temperature for 24 h before counting the number of attached and unattached larvae under a dissecting microscope. […] The experiment was performed in quadruplicate.

[2] = inhibition of larvae settlement of B. neritina; conditions: Bugula neritina (bryozoan) larvae, in vivo, B. neritina larvae, 24 h
Protocol: as §1

[3] = in vivo; conditions: Balanus amphitrite (barnacle) cyprid larvae, in vivo, B. amphitrite cyprids, 48 h, concentration where 50% of larvae dead
Protocol: (§2) They were kept in sea water at room temperature in lab under light illumination to induce the release of nauplii larvae. These newly released nauplii were reared to the cyprid stage on a diet of Chaetoceros gracilis Schutt at 28° C. for about 3 days until they developed into cyprids, which were ready to settle. The cyprids were collected using a 120 μm mesh sieve. Each sample of the exacts was dissolved in a small amount of DMSO and then transferred into filtered seawater to make up the test solution with a known concentration. About fifteen (15±3) cyprids per well were incubated in the dark for 48 h in a 24-well plate filled with 1 ml testing solutions per well. The numbers of the settled and swimming larvae were counted under a dissecting microscope. Three replicates were run for each sample. […] The experiment was performed in quadruplicate.
as §2, with “Each compound” for “Each”, “sample” for “sample of the exacts”

[4] = system: B. amphitrite cyprids; test: whole plant or invertebrate; conditions: for EC50: Amphibalanus amphitrite, 48 h, read-out: EC50 (larval settlement); for LC50/EC50: B. amphitrite, ratio >10 regarded as non-toxic
Protocol: as §2
as §2, with “Each compound” for “Each”, “sample” for “sample of the exacts”

[5] = inhibition of larvae settlement of H. elegans; conditions: Hydroides elegans (polychaete tubeworm) larvae, in vivo, H. elegans larvae, 48 h
Protocol: (§3) The four amide compounds were tested for their abilities to inhibit larvae settlement of the H. elegans, using an experimental model of inhibition of larvae settlement H. elegans (Zhang Y., Xiao K., Qian P. Y., et al. 2D gel-based multiplexed proteomic analysis during larval development and metamorphosis of the biofouling polychaete tubeworm Hydroides elegans. Journal of proteome research. 2010, 9(9), 4851-4860). Adults of H. elegans were collected from Yung Shue O, Hong Kong (22° 25′N, 114° 16′E). The H. elegans larvae were reared according to Qian and Pechenik (Bryan P. J., Qian P. Y., Kreider J. L.; Chia F. S. Induction of larval settlement and metamorphosis by pharmacological and conspecific associated compounds in the serpulid polychaete Hydroides elegans. Marine ecology progress series. 1997, 146: 81-90; Qiu, J. W.; Qian, P. Y. Combined effects of salinity, temperature and food on early development of the polychaete Hydroides elegans. Marine ecology progress series. 1997, 152: 79-88). Briefly, they were reared for 4 days until they reach the settlement-competent stage on a diet of chrysophyte Isochrysis galbana under an aerated condition and a 15 h light/9 h dark photoperied at 25° C. Because the attachment of H. elegans larvae requires to be induced by marine biofilm (Carpizo-Ituarte and Hadfield 1998), 24-well plates were suspended in laboratory tanks supplied with running seawater for 6 days until each well of every plate had accumulated sufficient biofilm. About fifteen (15±3) competent larvae were added to each biofilmed well of a plate containing 1.0 mL test solution containing samples at known concentrations. The 24-well plates were incubated at 28° C. for 48 h under a 15 h light/9 h dark photoperied. The percentage of larvae settlement and larvae mortality was determined by counting the settled, live individuals under a dissecting microscope. Three replicates were run for each sample. The EC50 was calculated as the concentration where 50% of the larval population was inhibited to settle as compared to the control, while LC50 was calculated as the concentration where 50% of the larval population was dead. The experiment was performed in quadruplicate. The experiment results of the inhibitory effect of the four Compounds 1-4 on larvae settlement of H. elegans were shown in FIGS. 3, 6, 9, and 12, respectively.

[6] = system: H. elegans larvae; test: inhibition of larvae settlement of H. elegans; conditions: for LC50/EC50: H. elegans, ratio >10 regarded as non-toxic; for EC50: Hydroides elegans, read-out: EC50 (larval settlement)
Protocol: as §3

[7] = other: immersion in test solution
[8] = B. amphitrite cyprids, concentration where 50% of larvae inhibited to settle vs control
[9] = 48 h, H. elegans larvae, biofilmed wells, 48 h

Compound | EC50 (larval settlement) ([1]; B. neritina larvae, 24 h) [µg/mL] | LC50/EC50 [1] | LC50 at 24 h [2, 7] [µg/mL] | LC50 at 48 h [3, 7] [µg/mL] | EC50 [4, 8] [µg/mL] | LC50/EC50 [4] | LC50 at 48 h [5, 7] [µg/mL] | LC50/EC50 [6] | EC50 [6, 9] [µg/mL] | EC50 ([1]; 24 h, B. neritina larvae, 24 h) [µg/mL] | LC50 at 24 h [2] [µg/mL] | LC50 at 48 h [3] [µg/mL] | LC50 at 48 h [5] [µg/mL] | EC50 ([1]; 24 h) [µg/mL] | EC50 [4] [µg/mL] | EC50 (larval settlement) ([6]; H. elegans larvae, biofilmed wells, 48 h) [µg/mL] | EC50 ([6]; 48 h) [µg/mL]
O=C(CCCCCC/C=C/c1ccc2c(c1)OCO2)N1CCCCC1 [Compound 1, 1-[1-oxo-9-(3′,4′-methylenedioxyphenyl)-8E-nonenyl]-piperine] | 0.7 ± 0.2 (≈ 2.04 µM) | >14.7 | > 10 | > 100 | 1.1 ± 0.3 (≈ 3.2 µM) | >86.9 | > 50 | >49.5 | 1 ± 0.4 (≈ 2.91 µM) | – | – | – | – | – | – | – | –
O=C(/C=C/C=C/c1ccc2c(c1)OCO2)N1CCCCC1 [Compound 2, 1-[1-oxo-5-(3′,4′-methylenedioxyphenyl)-2,4-pentadienoyl]-piperidine] | – | >30.3 | – | – | 1.4 ± 0.6 (≈ 4.91 µM) | >71.4 | – | >38.5 | 1.3 ± 0.8 (≈ 4.56 µM) | 1.6 ± 0.7 (≈ 5.61 µM) | > 50 | > 100 | > 50 | – | – | – | –
O=C(/C=C/C=C/CCc1ccc2c(c1)OCO2)N1CCCCC1 [Compound 3, 1-[1-oxo-7-(3′,4′-methylenedioxyphenyl)-2E,4E-heptadienyl]-piperine] | – | >11.7 | > 100 | > 100 | 4.2 ± 1.3 (≈ 13.4 µM) | >24.0 | > 100 | >13.7 | 7.3 ± 1.6 (≈ 23.3 µM) | 8.5 ± 2.1 (≈ 27.1 µM) | – | – | – | – | – | – | –
CC(C)CNC(=O)/C=C/C=C/CCCCCC/C=C/c1ccc2c(c1)OCO2 [Compound 4, (2E,4E,12E)-N-isobutyl-13-(3′,4′-methylenedioxyphenyl)-tridecatrienamide] | – | >17.6 | – | – | – | >12.1 | – | – | – | – | > 100 | > 200 | > 100 | 5.7 ± 1.5 (≈ 14.9 µM) | 16.6 ± 2.9 (≈ 43.3 µM) | >20.0 | > 20
